How the values were obtained:
[1] = Inhibition of Human respiratory syncytial virus A2 Fusion protein expressed in Hep2 cells assessed as reduction in virus-induced cytopathic effect after 4 days by XTT assay
[2] = Inhibition of Human respiratory syncytial virus Fusion protein D486N mutant expressed in Hep2 cells assessed as reduction in virus-induced cytopathic effect after 4 days by XTT assay

| SMILES | EC50 [1] | EC50 [2] |
| --- | --- | --- |
| CC[C@@H](c1cc2nc(N3CC[C@H](N)C3)c(C)cn2n1)N(C)C(=O)c1cc(C)ccc1OC | 3.8 nM | > 1000 nM |
| CC[C@H]1c2cc3nc(N4CC[C@H](N)C4)cc(n3n2)N(C)CCCOc2ccc(C)cc2C(=O)N1C | 17 nM | > 1000 nM |
| CC[C@H]1c2cc3nc(N4CC[C@H](N)C4)cc(n3n2)N(C)CCCCOc2ccc(C)cc2C(=O)N1C | 0.66 nM | 440 nM |
| CC[C@H]1c2cc3nc(N4CC[C@H](N)C4)cc(n3n2)N(C)CCCCCOc2ccc(C)cc2C(=O)N1C | 6.2 nM | > 1000 nM |
| CC[C@H]1c2cc3nc(N4CC[C@H](N)C4)cc(n3n2)N(C)CCCCCCOc2ccc(C)cc2C(=O)N1C | 54 nM | > 1000 nM |
| CC[C@H]1c2cc3nc(N4CC[C@H](N)C4)cc(n3n2)NCCCCOc2ccc(C)cc2C(=O)N1C | 61 nM | > 1000 nM |
| CC[C@H]1c2cc3nc(N4CC[C@H](N)C4)c(C)c(n3n2)NCCCCOc2ccc(C)cc2C(=O)N1C | 1.4 nM | > 1000 nM |
| CC[C@H]1c2cc3nc(N4CC[C@H](N)C4)c(C)c(n3n2)N(C)CCCCOc2ccc(C)cc2C(=O)N1C | 8.1 nM | > 1000 nM |
| Cc1ccc2c(c1)C(=O)N1CCCC[C@H]1c1cc3nc(N4CC[C@H](N)C4)cc(n3n1)N(C)CCCCO2 | 2 nM | 8.1 nM |

From BindingDB's records for doi:10.1021/acsmedchemlett.0c00008 (Taisho Pharmaceutical, 2020)
